This note sets out measurements from patent US6872749B2, “Method for supplying bioavailable methionine to a cow” (Adisseo Ireland Limited, priority 1998, dated 2005).

This series can be described thus: Bioavailability of esters of methionine after spot dose to cows (Example 2). In kind it is in vivo, cow. As for the experimental part: The bioavailability of the esters was evaluated.
The samples were stored in a freezer.
The procedure of (b1) was repeated using 72 g of methionine ethyl ester hydrochloride, prepared as detailed above
• cyclohexyl methioninate: 122 g • methionine methyl ester hydrochloride: 73 g • sec butyl methioninate: 72 g

For `CCCCOC(=O)[C@@H](N)CCSC` [n-butyl methioninate], the “[met] methionine concentration in blood plasma” value (“[met] methionine concentration” below) runs as follows: (bovine, in vivo, 0 h) 0.32 mg/100 g of blood plasma; (bovine, in vivo, 1 h) 1.10 mg/100 g of blood plasma; (bovine, in vivo, 2 h) 0.74 mg/100 g of blood plasma; (bovine, in vivo, 3 h) 0.63 mg/100 g of blood plasma; (bovine, in vivo, 5 h) 0.62 mg/100 g of blood plasma; (bovine, in vivo, 7 h) 0.61 mg/100 g of blood plasma. Also, the “[met] methionine concentration” value (bovine, in vivo, 28 h) is recorded as 0.27 mg/100 g of blood plasma. The compound also returned a Bioavailability % (bovine, in vivo, po) of 8%.
Turning to `COC(=O)[C@@H](N)CCSC` [Methyl methioninate, methyl methioninate], the “[met] methionine concentration” value is, setting by setting: (bovine, in vivo, 0 h) 0.34 mg/100 g of blood plasma; (bovine, in vivo, 1 h) 4.08 mg/100 g of blood plasma; (bovine, in vivo, 2 h) 3.87 mg/100 g of blood plasma; (bovine, in vivo, 3 h) 3.25 mg/100 g of blood plasma; (bovine, in vivo, 5 h) 2.57 mg/100 g of blood plasma; (bovine, in vivo, 7 h) 2.51 mg/100 g of blood plasma. The “[met] methionine concentration” value (bovine, in vivo, 28 h) is reported as 0.41 mg/100 g of blood plasma. Under “bovine, in vivo, po”, this compound came in with a Bioavailability % of 51%.
For the compound `CCC(C)OC(=O)[C@@H](N)CCSC` (some centres unmarked) [sec butyl methioninate], the “[met] methionine concentration” value runs as follows: (bovine, in vivo, 0 h) 0.35 mg/100 g of blood plasma; (bovine, in vivo, 1 h) 2.75 mg/100 g of blood plasma; (bovine, in vivo, 2 h) 2.49 mg/100 g of blood plasma; (bovine, in vivo, 3 h) 2.39 mg/100 g of blood plasma; (bovine, in vivo, 5 h) 1.75 mg/100 g of blood plasma; (bovine, in vivo, 7 h) 1.56 mg/100 g of blood plasma. Besides, where the note is “bovine, in vivo, 28 h”, the “[met] methionine concentration” value was 0.44 mg/100 g of blood plasma. This compound gave a Bioavailability % (bovine, in vivo, po) of 28%.
Regarding `CCCCCCCCCCCCCCCCCCOC(=O)[C@@H](N)CCSC` [n-octadecyl methioninate], the “[met] methionine concentration” value reads like this: (bovine, in vivo, 0 h) 0.37 mg/100 g of blood plasma; (bovine, in vivo, 1 h) 0.37 mg/100 g of blood plasma; (bovine, in vivo, 2 h) 0.37 mg/100 g of blood plasma; (bovine, in vivo, 3 h) 0.34 mg/100 g of blood plasma; (bovine, in vivo, 5 h) 0.37 mg/100 g of blood plasma; (bovine, in vivo, 7 h) 0.31 mg/100 g of blood plasma. Besides, for the setting “bovine, in vivo, 28 h”, the “[met] methionine concentration” value is 0.38 mg/100 g of blood plasma. Under “bovine, in vivo, po”, this compound came in with a Bioavailability % of 1%.
Take `CCCCCCOC(=O)[C@@H](N)CCSC` [n-hexyl methioninate]: the “[met] methionine concentration” value (bovine, in vivo, 0 h) is given as 0.31 mg/100 g of blood plasma; the “[met] methionine concentration” value (bovine, in vivo, 1 h) is 1.22 mg/100 g of blood plasma; the “[met] methionine concentration” value (bovine, in vivo, 2 h) is 0.92 mg/100 g of blood plasma; the “[met] methionine concentration” value (bovine, in vivo, 3 h) is 0.94 mg/100 g of blood plasma; the “[met] methionine concentration” value (bovine, in vivo, 5 h) is 1.06 mg/100 g of blood plasma; the “[met] methionine concentration” value (bovine, in vivo, 7 h) is 1.07 mg/100 g of blood plasma. For the setting “bovine, in vivo, 28 h”, the “[met] methionine concentration” value is 0.35 mg/100 g of blood plasma. Where the note is “bovine, in vivo, po”, this compound yielded a Bioavailability % of 17%.
Consider `CCCOC(=O)[C@@H](N)CCSC` [n-propyl methioninate], for which the “[met] methionine concentration” value (bovine, in vivo, 0 h) is 0.32 mg/100 g of blood plasma; the “[met] methionine concentration” value (bovine, in vivo, 1 h) was 2.29 mg/100 g of blood plasma; the “[met] methionine concentration” value (bovine, in vivo, 2 h) is given as 1.70 mg/100 g of blood plasma; the “[met] methionine concentration” value (bovine, in vivo, 3 h) is 1.55 mg/100 g of blood plasma; the “[met] methionine concentration” value (bovine, in vivo, 5 h) is listed as 1.27 mg/100 g of blood plasma; the “[met] methionine concentration” value (bovine, in vivo, 7 h) is given as 1.14 mg/100 g of blood plasma. The “[met] methionine concentration” value (bovine, in vivo, 28 h) is given as 0.32 mg/100 g of blood plasma. Besides, the Bioavailability % (bovine, in vivo, po) was 22%.
Regarding `CSCC[C@H](N)C(=O)OC(C)(C)C` [Tertiary butyl methioninate, tertiary butyl methioninate], the “methionine equivalent provided to the cow by rumen absorption” value (bovine, in vivo) was “approximately 80%”. The “time after intake within which methionine is provided to the blood stream” value (bovine, in vivo) is on record as “less than one”. Further, the “[met] methionine concentration” value (bovine, in vivo, 0 h) is listed as 0.37 mg/100 g of blood plasma; the “[met] methionine concentration” value (bovine, in vivo, 1 h) is on record as 4.84 mg/100 g of blood plasma; the “[met] methionine concentration” value (bovine, in vivo, 2 h) was 4.87 mg/100 g of blood plasma; the “[met] methionine concentration” value (bovine, in vivo, 3 h) is 4.98 mg/100 g of blood plasma; the “[met] methionine concentration” value (bovine, in vivo, 5 h) is reported as 4.39 mg/100 g of blood plasma; the “[met] methionine concentration” value (bovine, in vivo, 7 h) is reported as 4.19 mg/100 g of blood plasma. For the same compound, the “[met] methionine concentration” value (bovine, in vivo, 28 h) was 0.76 mg/100 g of blood plasma. Moreover, the Bioavailability % (bovine, in vivo, po) was 80%.
With `COC(=O)[C@@H](N)CCSC.Cl` [Methionine methyl ester hydrochloride, methionine methyl ester hydrochloride], the “[met] methionine concentration” value runs as follows: (bovine, in vivo, 0 h) 0.41 mg/100 g of blood plasma; (bovine, in vivo, 1 h) 1.96 mg/100 g of blood plasma; (bovine, in vivo, 2 h) 1.43 mg/100 g of blood plasma; (bovine, in vivo, 3 h) 1.27 mg/100 g of blood plasma; (bovine, in vivo, 5 h) 1.18 mg/100 g of blood plasma; (bovine, in vivo, 7 h) 1.22 mg/100 g of blood plasma. Moreover, the “[met] methionine concentration” value (bovine, in vivo, 28 h) was 0.43 mg/100 g of blood plasma. Also, the Bioavailability % (bovine, in vivo, po) is given as 25%.
`CCCCCCCCCCCCOC(=O)[C@@H](N)CCSC` [Dodecyl methioninate, dodecyl methioninate]: the “[met] methionine concentration” value is, setting by setting: (bovine, in vivo, 0 h) 0.33 mg/100 g of blood plasma; (bovine, in vivo, 1 h) 0.38 mg/100 g of blood plasma; (bovine, in vivo, 2 h) 0.37 mg/100 g of blood plasma; (bovine, in vivo, 3 h) 0.37 mg/100 g of blood plasma; (bovine, in vivo, 5 h) 0.44 mg/100 g of blood plasma; (bovine, in vivo, 7 h) 0.45 mg/100 g of blood plasma. Moreover, the “[met] methionine concentration” value (bovine, in vivo, 28 h) was 0.28 mg/100 g of blood plasma. Besides, the Bioavailability % (bovine, in vivo, po) came to 3%.
Turning to `CSCC[C@H](N)C(=O)OC1CCCCC1` [Cyclohexyl methioninate, cyclohexyl methioninate], the “[met] methionine concentration” value is, setting by setting: (bovine, in vivo, 0 h) 0.29 mg/100 g of blood plasma; (bovine, in vivo, 1 h) 2.55 mg/100 g of blood plasma; (bovine, in vivo, 2 h) 2.27 mg/100 g of blood plasma; (bovine, in vivo, 3 h) 1.88 mg/100 g of blood plasma; (bovine, in vivo, 5 h) 1.61 mg/100 g of blood plasma; (bovine, in vivo, 7 h) 1.55 mg/100 g of blood plasma. Also, the “[met] methionine concentration” value (bovine, in vivo, 28 h) is listed as 0.38 mg/100 g of blood plasma. For the same compound, the Bioavailability % (bovine, in vivo, po) was 35%.
Turning to `CCOC(=O)[C@H](CCSC)NC(C)=O` [ethyl N-acetyl methioninate], the “[met] methionine concentration” value runs as follows: (0 hours after administration, spot dose equivalent to 50 g methionine, 2 cows) 0.26 mg/100 g of blood plasma; (1 hour after administration, spot dose equivalent to 50 g methionine, 2 cows) 1.84 mg/100 g of blood plasma; (2 hours after administration, spot dose equivalent to 50 g methionine, 2 cows) 1.97 mg/100 g of blood plasma; (3 hours after administration, spot dose equivalent to 50 g methionine, 2 cows) 1.53 mg/100 g of blood plasma; (5 hours after administration, spot dose equivalent to 50 g methionine, 2 cows) 1.12 mg/100 g of blood plasma; (7 hours after administration, spot dose equivalent to 50 g methionine, 2 cows) 0.86 mg/100 g of blood plasma. Moreover, the “[met] methionine concentration” value (28 hours after administration, spot dose equivalent to 50 g methionine, 2 cows) was 0.36 mg/100 g of blood plasma. Further, the Bioavailability % (AUC method, spot dose equivalent to 50 g methionine) stood at 20%.
With `CCOC(=O)[C@@H](N)CCSC.Cl` [Methionine ethyl ester hydrochloride, methionine ethyl ester hydrochloride], the “[met] methionine concentration” value reads like this: (bovine, in vivo, 0 h) 0.36 mg/100 g of blood plasma; (bovine, in vivo, 1 h) 2.78 mg/100 g of blood plasma; (bovine, in vivo, 2 h) 2.60 mg/100 g of blood plasma; (bovine, in vivo, 3 h) 2.30 mg/100 g of blood plasma; (bovine, in vivo, 5 h) 2.00 mg/100 g of blood plasma; (bovine, in vivo, 7 h) 1.43 mg/100 g of blood plasma. For the same compound, the “[met] methionine concentration” value (bovine, in vivo, 28 h) is recorded as 0.38 mg/100 g of blood plasma. Also, under “bovine, in vivo, po”, the Bioavailability % is reported as 30%.
